Measurements as given in patent US20110020460A1, “GPR 119 MODULATORS” (Pfizer Inc., priority 2009, published 2011).
“And” between values parts separate entries of the source, which are not always exact repeats. Identical values can stand only once. Like-named read-outs stand apart in the source and are kept apart here.

Assays:
human GPR119 [1] = target: T1, human GPR119 (Homo sapiens, UniProt Q8TDV5); experiment: cAMP HTRF functional assay (hGPR119 HEK-CRE beta-lactamase cells); assay type: cell-based; conditions: for Emax: read-out: Intrinsic Activity* (cAMP)
T1 construct: host or cells: HEK293-CRE-beta-lactamase
T1 sequence (Q8TDV5 1-335): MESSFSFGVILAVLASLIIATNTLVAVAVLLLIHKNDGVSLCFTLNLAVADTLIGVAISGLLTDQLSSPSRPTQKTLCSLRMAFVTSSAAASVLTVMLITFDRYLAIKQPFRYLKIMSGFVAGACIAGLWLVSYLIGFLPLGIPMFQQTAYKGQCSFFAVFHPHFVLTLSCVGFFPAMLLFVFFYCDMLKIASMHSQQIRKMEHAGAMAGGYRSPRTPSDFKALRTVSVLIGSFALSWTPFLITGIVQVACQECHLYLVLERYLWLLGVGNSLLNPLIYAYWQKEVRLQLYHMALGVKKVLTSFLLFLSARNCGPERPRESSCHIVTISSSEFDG
Experimental: GPR119 agonist activity was also determined with a cell-based assay utilizing an HTRF (Homogeneous Time-Resolved Fluorescence) cAMP detection kit (cAMP dynamic 2 Assay Kit; Cis Bio cat #62AM4PEC) that measures cAMP levels in the cell. The method is a competitive immunoassay between native cAMP produced by the cells and the cAMP labeled with the dye d2. The tracer binding is visualized by a Mab anti-cAMP labeled with Cryptate. The specific signal (i.e. energy transfer) is inversely proportional to the concentration of cAMP in either standard or sample.
Following 30 minutes incubation at room temperature, 5 microL of labeled d2 cAMP and 5 microL of anti-cAMP antibody (both diluted 1:20 in cell lysis buffer; as described in the manufacturers assay protocol) were added to each well of the assay plate. […] Raw data were converted to nM cAMP by interpolation from a cAMP standard curve (as described in the manufacturer's assay protocol) and EC50 determinations were made from an agonist-response curves analyzed with a curve fitting program using a 4-parameter logistic dose response equation.

human GPR119 [2] = target: T1, human GPR119; experiment: beta-lactamase reporter functional assay (hGPR119 HEK293-CRE beta-lactamase cells); assay type: cell-based; conditions: one value per run; for EC50: hGPR119 HEK293-CRE beta-lactamase cells, read-out: Human B-lactamase Functional EC50; for Intrinsic Activity* (B-lactamase) / Emax: percent of maximal activity relative to standard GPR119 agonist (WO2005121121) at 10 microM; for Emax: read-out: Intrinsic Activity* (B-lactamase)
Experimental: The assay for GPR119 agonists utilizes a cell-based (hGPR119 HEK293-CRE beta-lactamase) reporter construct where agonist activation of human GPR119 is coupled to beta-lactamase production via a cyclic AMP response element (CRE). GPR119 activity is then measured utilizing a FRET-enabled beta-lactamase substrate, CCF4-AM (Live Blazer FRET-B/G Loading kit, Invitrogen cat #K1027). […] After 4 hours the plating medium was removed and replaced with 40 microL of assay medium (Assay medium is plating medium without potassium clavulanate and HIFBS). Varying concentrations of each compound to be tested was then added in a volume of 10 microL (final DMSO≦0.5%) and the cells were incubated for 16 hours at 37 degrees Celsius in a humidified environment containing 5% carbon dioxide. Plates were removed from the incubator and allowed to equilibrate to room temperature for approximately 15 minutes. 10 microL of 6×CCF4/AM working dye solution (prepared according to instructions in the Live Blazer FRET-B/G Loading kit, Invitrogen cat #K1027) was added per well and incubated at room temperature for 2 hours in the dark. Fluorescence was measured on an EnVision fluorimetric plate reader, excitation 405 nm, emission 460 nm/535 nm. EC50 determinations were made from agonist-response curves analyzed with a curve fitting program using a 4-parameter logistic dose-response equation.

human GPR119 [3] = target: T1, human GPR119; experiment: GPR119 radioligand binding assay ([3H]-Compound A or [3H]-Compound B, HEK 293FT membranes); conditions: Ki from IC50 by Cheng-Prusoff, one value per run
Experimental: Cells were harvested via centrifugation (3,000×g, 10 minutes), washed once on DPBS (minus Ca++/Mg++), resuspended in 0.25M sucrose, 25 mM HEPES, 0.5 mM EDTA, pH 7.4 and frozen at −80 degrees Celsius.
The frozen cells were thawed on ice and centrifuged at 700×g (1400 rpm) for 10 minutes at 4 degrees Celsius. The cell pellet was resuspended in 20 mL phosphate-buffered saline, and centrifuged at 1400 rpm for 10 minutes. […] Cells were then lysed with 15 gentle strokes of a tight-fitting glass Dounce homogenizer. The homogenate was centrifuged at 1000×g (2200 rpm) for 10 minutes at 4 degrees Celsius. The supernatant was transferred into fresh centrifuge tubes on ice. The cell pellet was resuspended in homogenization buffer, and centrifuged again at 1000×g (2200 rpm) for 10 minutes at 4 degrees Celsius after which the supernatant was removed and the pellet resuspended in homogenization buffer. […] The solution was then centrifuged at 25,000×g (15000 rpm) for 20 minutes at 4 degrees Celsius, the supernatant was discarded, and the pellet was resuspended in fresh homogenization buffer (minus Benzonase and MgCl2). After repeating the 25,000×g centrifugation step, the final membrane pellet was resuspended in homogenization buffer and frozen at −80 degrees Celsius.
2 microL of each dilution was added to appropriate wells of a 96-well plate (each concentration in triplicate).
Membranes expressing GPR119 were thawed and diluted to a final concentration of 20 μg/100 microL per well in Binding Buffer, and 100 microL of diluted membranes were added to each well of 96-well plate.
The plate was incubated for 60 minutes w/shaking at room temperature (approximately 25 degrees Celsius). […] Filters were then washed six times using washing buffer (50 mM Tris-HCl, pH 7.5 kept at 4 degrees Celsius). The filter plates were then air-dyed at room temperature overnight.
IC50 determinations were made from competition curves, analyzed with a proprietary curve fitting program (SIGHTS) and a 4-parameter logistic dose response equation. Ki values were calculated from IC50 values, using the Cheng-Prusoff equation.

[4] = hGPR119 HEK-CRE beta-lactamase cells, HTRF cAMP, one value per run
[5] = percent of maximal activity relative to standard GPR119 agonist (WO2005121121) at 10 μM, one value per run
[6] = **curve was extrapolated to 100% to calculate an EC50

EC50 (human GPR119 [1]; [4]) | Intrinsic Activity* (cAMP) (human GPR119 [1]; [5]) | Emax (human GPR119 [1]; [5]) | EC50 (human GPR119 [2]) | Intrinsic Activity* (B-lactamase) (human GPR119 [2]) | Emax (human GPR119 [2]) | Ki (human GPR119 [3]; read-out: Human Binding Ki) | EC50 (human GPR119 [1]; [6]) | Emax (human GPR119 [1]; [6]) | SMILES | Ki (human GPR119 [3]; Human Binding Ki)
87 nM and 98 nM | 57% | 62% | 34 nM and 38 nM | 94% | 100% | 28 nM and 30 nM |  |  | CC(C)OC(=O)N1CCC(n2ncc(CNc3ccc(S(C)(=O)=O)cc3F)c2C#N)CC1 [Example 10, Isopropyl 4-[5-cyano-4-({[2-fluoro-4-(methylsulfonyl)phenyl]amino}methyl)-1H-pyrazol-1-yl]piperidine-1-carboxylate] | 
163 nM and 98 nM and 154 nM | 74% and 62% | 61% | 782 nM |  | 98% | 530 nM |  |  | CC(C)OC(=O)N1CCC(n2ncc(COc3ccc(F)cc3F)c2C#N)CC1 [Example 11, Isopropyl 4-{5-cyano-4-[(2,4-difluorophenoxy)methyl]-1H-pyrazol-1-yl}piperidine-1-carboxylate] | 
67 nM and 69 nM | 75% | 80% |  |  |  | 153 nM |  |  | CC(C)OC(=O)N1CCC(n2ncc(COc3ccc(-n4cccn4)cc3)c2C#N)CC1 [Example 18, Isopropyl 4-(4-((4-(1H-pyrazol-1-yl)phenoxy)methyl)-5-cyano-1H-pyrazol-1-yl)piperidine-1-carboxylate] | 
147 nM and 161 nM |  | 29% |  |  |  | 159 nM |  |  | CC(C)OC(=O)N1CCC(n2ncc(COc3ccc(-c4nnn(CCO)n4)cc3F)c2C#N)CC1 [Example 22, Isopropyl 4-(5-cyano-4-((2-fluoro-4-(2-(2-hydroxyethyl)-2H-tetrazol-5-yl)phenoxy)methyl)-1H-pyrazol-1-yl)piperidine-1-carboxylate] | 
 |  |  |  |  |  | 150 nM | 1640 nM and 1470 nM | 100% | CC(C)OC(=O)N1CCC(n2ncc(COc3ccc(-c4nnnn4CCO)cc3F)c2C#N)CC1 [Example 23, Isopropyl 4-(5-cyano-4-((2-fluoro-4-(1-(2-hydroxyethyl)-1H-tetrazol-5-yl)phenoxy)methyl)-1H-pyrazol-1-yl)piperidine-1-carboxylate] | 
57 nM and 111 nM | 88% and 114% |  |  |  |  | 418 nM |  |  | Cn1nnnc1-c1ccc(OCc2cnn(C3CCN(C(=O)OC4(C)CC4)CC3)c2C#N)cc1 [Example 25, 1-Methylcyclopropyl 4-(5-cyano-4-{[4-(1-methyl-1H-tetrazol-5-yl)phenoxy]methyl}-1H-pyrazol-1-yl)piperidine-1-carboxylate] | 
254 nM |  | 62% |  |  |  |  |  |  | CC1(OC(=O)N2CCC(n3ncc(COc4ccc(C(N)=O)c(F)c4)c3C#N)CC2)CC1 [Example 26, 1-Methylcyclopropyl 4-(4-((4-carbamoyl-3-fluorophenoxy)methyl)-5-cyano-1H-pyrazol-1-yl)piperidine-1-carboxylate] | 

Continued, compound first:

SMILES | EC50 (human GPR119 [1]; [4]) | Intrinsic Activity* (cAMP) (human GPR119 [1]; [5]) | Emax (human GPR119 [1]; [5]) | EC50 (human GPR119 [2]) | Intrinsic Activity* (B-lactamase) (human GPR119 [2]) | Emax (human GPR119 [2]) | Ki (human GPR119 [3]; read-out: Human Binding Ki) | EC50 (human GPR119 [1]; [6]) | Emax (human GPR119 [1]; [6]) | Ki (human GPR119 [3]; Human Binding Ki)
CC(C)OC(=O)N1CCC(n2ncc(COc3ccc(S(=O)(=O)CCO)cc3F)c2C#N)CC1 [Example 1, Isopropyl 4-[5-cyano-4-({2-fluoro-4-[(2-hydroxyethyl)sulfonyl]-phenoxy}methyl)-1H-pyrazol-1-yl]piperidine-1-carboxylate] | 217 nM and 180 nM | 37% | 56% | 68 nM and 122 nM | 101% | 100% | 47 nM and 45 nM |  |  | 
CC(C)OC(=O)N1CCC(n2ncc(COc3ccc(S(C)(=O)=O)cc3F)c2C#N)CC1 [Example 2, Isopropyl 4-(5-cyano-4-{[2-fluoro-4-(methylsulfonyl)phenoxy]methyl}-1H-pyrazol-1-yl)piperidine-1-carboxylate] | 29 nM and 27 nM | 63% | 60% | 9 nM and 17 nM | 93% and 84% | 100% | 10 nM and 19 nM and 13 nM and 40 nM |  |  | 
CC(C)OC(=O)N1CCC(n2ncc(COc3ccc(-n4cnnn4)cc3)c2C#N)CC1 [Example 4, Isopropyl 4-(5-cyano-4-{[4-(1H-tetrazol-1-yl)phenoxy]methyl}-1H-pyrazol-1-yl)piperidine-1-carboxylate] | 10 nM and 9 nM | 60% | 80% | 15 nM and 16 nM | 95% | 97% | 5 nM |  |  | 
Cc1ncccc1OCc1cnn(C2CCN(C(=O)OC(C)C)CC2)c1C#N [Example 5, Isopropyl 4-(5-cyano-4-{[(2-methylpyridin-3-yl)oxy]methyl}-1H-pyrazol-1-yl)piperidine-1-carboxylate] | 442 nM and 650 nM | 34% | 39% | 250 nM and 227 nM and 395 nM | 88% and 104% | 100% | 939 nM and 1710 nM |  |  | 
Cc1ncccc1NCc1cnn(C2CCN(C(=O)OC(C)C)CC2)c1C#N [Example 6, Isopropyl 4-(5-cyano-4-{[(2-methylpyridin-3-yl)amino]methyl}-1H-pyrazol-1-yl)piperidine-1-carboxylate] | > 10000 nM |  | 17% | 6 nM |  | 31% | > 6100 nM |  |  | 
COP(=O)(OC)c1ccc(OCc2cnn(C3CCN(C(=O)OC(C)C)CC3)c2C#N)c(F)c1 [Example 7, Isopropyl 4-(5-cyano-4-{[4-(dimethoxyphosphoryl)-2-fluorophenoxy]methyl}-1H-pyrazol-1-yl)piperidine-1-carboxylate] | 225 nM and 256 nM and 169 nM | 74% and 85% | 80% | 622 nM |  | 98% |  |  |  | 293 nM and 283 nM
CC(C)OC(=O)N1CCC(n2ncc(CCc3ccc(S(C)(=O)=O)cc3F)c2C#N)CC1 [Example 9, Isopropyl 4-(5-cyano-4-{2-[2-fluoro-4-(methylsulfonyl)phenyl]ethyl}-1H-pyrazol-1-yl)piperidine-1-carboxylate] |  |  |  | 56 nM and 89 nM | 93% | 98% | 35 nM and 42 nM |  |  | 
